Assays:
human STAT6 = experiment: Human STAT6 dependent reporter activity (IL-4 stimulated STAT6 reporter assay using STAT6-HEK293 cells); assay type: cell-based; conditions: Homo sapiens, IL-4 stimulation, luciferase activity, read-out: Inhibition rate (%); for inhibition at 0.1 µM: compound 0.1 μmol/L; for inhibition at 1 µM: compound 1 μmol/L
human STAT6/pIL-4Rα = molecular target: T1, human STAT6/pIL-4Rα (Homo sapiens, UniProt P42226); experiment: Binding inhibitory activity between human STAT6/pIL-4Rα by fluorescence polarization method; conditions: rhSTAT6 (123-658) / FAM-pIL-4Rα peptide
T1 construct: histidine tag
T1 sequence (P42226 123-658): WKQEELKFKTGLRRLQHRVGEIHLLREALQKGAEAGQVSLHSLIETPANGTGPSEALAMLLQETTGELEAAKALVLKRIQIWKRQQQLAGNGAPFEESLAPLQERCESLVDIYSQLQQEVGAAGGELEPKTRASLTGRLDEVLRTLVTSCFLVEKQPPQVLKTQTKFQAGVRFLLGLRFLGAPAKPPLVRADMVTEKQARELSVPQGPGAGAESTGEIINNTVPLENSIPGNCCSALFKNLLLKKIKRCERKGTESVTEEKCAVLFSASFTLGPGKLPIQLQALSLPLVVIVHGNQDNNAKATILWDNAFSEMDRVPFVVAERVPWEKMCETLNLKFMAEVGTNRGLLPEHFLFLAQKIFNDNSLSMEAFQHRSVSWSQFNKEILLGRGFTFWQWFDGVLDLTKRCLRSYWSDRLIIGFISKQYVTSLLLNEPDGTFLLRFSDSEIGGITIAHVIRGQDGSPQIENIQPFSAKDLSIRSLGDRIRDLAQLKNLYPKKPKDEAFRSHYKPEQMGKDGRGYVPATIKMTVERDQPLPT
Outline: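 His-tagged human STAT6 (residues 123–658, E. coli-expressed) was preincubated with compound for 30 min at RT in the dark, in buffer e.g. 50 mM NaCl, 10 mM HEPES pH 7.0, 1 mM DTT, 1 mM EDTA, 0.01% NP-40. FAM-pIL-4Rα peptide was then added for 30 min. Fluorescence polarisation was read at 485/535 nm, with IC50 interpolated linearly between two points flanking 50%.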

| SMILES | inhibition at 0.1 µM (human STAT6) [%] | inhibition at 1 µM (human STAT6) [%] | IC50 (human STAT6/pIL-4Rα) [nM] |
| --- | --- | --- | --- |
| COCCn1c(-c2ccc(-n3c(C)nn(C)c3=O)cc2)cc2cc(C(F)(F)F)cc(C(=O)Nc3ccccn3)c21 [Ex. 69] | 61 | 100 | 290 |
| COCCn1c(-c2ccc(-n3c(C)nn(C)c3=O)cc2)cc2cc(C(F)(F)F)cc(C(=O)Nc3cccnc3OC)c21 [Ex. 70] | -6 | 45 | 760 |
| CCn1c(-c2ccc(-n3c(C)nn(C)c3=O)cc2F)cc2cc(C(F)(F)F)cc(C(=O)Nc3ccc(F)c(C(N)=O)c3)c21 [Ex. 72] | 65 | 97 | 340 |
| COCCn1c(-c2ccc(-n3c(C)nn(C)c3=O)cc2)cc2cc(C(F)(F)F)cc(C(=O)Nc3ccc(C)nc3)c21 [Ex. 73] | 72 | 100 | 370 |
| CCn1c(-c2ccc(-n3c(C)nn(C)c3=O)cc2)cc2nc(C(F)(F)F)cc(C(=O)Nc3ccc(F)c(C(N)=O)c3)c21 [Ex. 74] | 21 | 91 | 480 |
| CCn1c(-c2ccc(-n3c(C)nn(C)c3=O)cc2)cc2nc(C(F)(F)F)cc(C(=O)Nc3cccc(C(N)=O)c3F)c21 [Ex. 75] | 36 | 93 | 360 |
| CCn1c(-c2ccc(-n3c(C)nn(C)c3=O)cc2)cc2c(F)ccc(C(=O)Nc3ccc(F)c(C(N)=O)c3)c21 [Ex. 76] | 31 | 94 | 360 |
| CCn1c(-c2ccc(-n3c(C)nn(C)c3=O)cc2)cc2c(F)ccc(C(=O)Nc3cccc(C(N)=O)c3F)c21 [Ex. 77] | 73 | 99 | 590 |
| COCCn1c(-c2ccc(-n3c(C)nn(C)c3=O)cc2)cc2cc(C(F)(F)F)cc(C(=O)Nc3cccc(OC)n3)c21 [Ex. 78] | 89 | 100 | 340 |
| COCCn1c(-c2ccc(-n3c(C)nn(C)c3=O)cc2)cc2cc(C(F)(F)F)cc(C(=O)Nc3ccnn3C)c21 [Ex. 80] | 4 | 61 | 400 |
| CCn1c(-c2ccc(-n3c(C)nn(C)c3=O)cc2)cc2cc(C(F)(F)F)nc(C(=O)Nc3cccc(C(N)=O)c3F)c21 [Ex. 83] | 68 | 98 | 370 |
| COCCn1c(-c2ccc(-n3c(C)nn(C)c3=O)cc2)cc2cc(C(F)(F)F)cc(C(=O)Nc3nnc(C)s3)c21 [Ex. 84] | 93 | 100 | 240 |
| COCCn1c(-c2ccc(-n3c(C)nn(C)c3=O)cc2)cc2cc(C(F)(F)F)cc(C(=O)Nc3nccs3)c21 [Ex. 85] | 11 | 73 | 340 |
| COCCn1c(-c2ccc(-n3c(C)nn(C)c3=O)cc2)cc2cc(C(F)(F)F)cc(C(=O)Nc3ccnnc3)c21 [Ex. 88] | 9 | 76 | 420 |
| COCCn1c(-c2ccc(-n3c(C)nn(C)c3=O)cc2)cc2cc(C(F)(F)F)nc(C(=O)Nc3ccc(F)c(C(N)=O)c3)c21 [Ex. 90] | 63 | 99 | 280 |
| COCCn1c(-c2ccc(-n3c(C)nn(C)c3=O)cc2)cc2cc(C(F)(F)F)nc(C(=O)Nc3cccc(C(N)=O)c3)c21 [Ex. 91] | 67 | 99 | 250 |
| Cc1nn(C)c(=O)n1-c1ccc(-c2cc3cc(C(F)(F)F)nc(C(=O)Nc4ccc(F)c(C(N)=O)c4)c3n2C)cc1 [Ex. 92] | 74 | 99 | 230 |
| Cc1nn(C)c(=O)n1-c1ccc(-c2cc3cc(C(F)(F)F)nc(C(=O)Nc4cccc(C(N)=O)c4)c3n2C)cc1 [Ex. 93] | 67 | 96 | 280 |
| Cc1nn(C)c(=O)n1-c1ccc(-c2cc3cc(C(F)(F)F)nc(C(=O)Nc4cccc(C(N)=O)c4F)c3n2C)cc1 [Ex. 94] | 79 |  | 310 |

| SMILES | inhibition at 0.1 µM (human STAT6) [%] | inhibition at 1 µM (human STAT6) [%] | IC50 (human STAT6/pIL-4Rα) [nM] |
| --- | --- | --- | --- |
| COCCn1c(-c2ccc(-n3c(C)nn(C)c3=O)cc2)cc2cc(C(F)(F)F)cc(C(=O)Nc3cccc(N)n3)c21 [Ex. 95] | 74 |  | 280 |
| COCCn1c(-c2ccc(-n3c(C)nn(C)c3=O)cc2)cc2cc(C(F)(F)F)nc(C(=O)Nc3cccc(C(N)=O)c3F)c21 [Ex. 97] | 89 |  | 290 |
| CCn1c(-c2ccc(-n3c(C)nn(C)c3=O)cc2F)cc2ccnc(C(=O)Nc3cccc(C(N)=O)c3F)c21 [Ex. 98] | 60 | 100 | 310 |
| CCn1c(-c2ccc(-n3cnn(C)c3=O)cc2)cc2ccnc(C(=O)Nc3cccc(C(N)=O)c3F)c21 [Ex. 99] | 51 | 95 | 380 |
| COCCn1c(-c2ccc(-n3c(C)nn(C)c3=O)cc2)cc2cc(C(F)(F)F)cc(C(=O)Nc3cccc(COC)n3)c21 [Ex. 100] | 85 |  | 300 |
| CCn1c(-c2ccc(-n3c(C)nn(C)c3=O)cc2)cc2cc(C(F)(F)F)cc(C(=O)Nc3cccc(OC)n3)c21 [Ex. 102] |  | 60 | 2820 |
| Cc1nn(C)c(=O)n1-c1ccc(-c2cc3ccnc(C(=O)Nc4cccc(C(N)=O)c4)c3n2C)cc1 [Ex. 107] | 67 |  | 290 |
| Cc1nn(C)c(=O)n1-c1ccc(-c2cc3ccnc(C(=O)Nc4ccc(F)c(C(N)=O)c4)c3n2C)cc1 [Ex. 108] | 52 | 97 | 460 |
| Cc1nn(C)c(=O)n1-c1ccc(-c2cc3ccnc(C(=O)Nc4cccc(C(N)=O)c4F)c3n2C)cc1 [Ex. 109] | 62 |  | 430 |
| CCn1c(-c2ccc(-n3c(C)nn(C)c3=O)cc2)cc2ncnc(C(=O)Nc3ccc(F)c(C(N)=O)c3)c21 [Ex. 110] | 65 |  | 430 |
| Cc1nn(C)c(=O)n1-c1ccc(-c2cc3ccnc(C(=O)Nc4ccc(F)c(C(N)=O)c4)c3n2CCC(F)F)cc1 [Ex. 111] | 25 | 80 | 550 |
| Cc1nn(C)c(=O)n1-c1ccc(-c2cc3ccnc(C(=O)Nc4cccc(C(N)=O)c4F)c3n2CCC(F)F)cc1 [Ex. 112] | 38 | 93 | 400 |
| Cc1nn(C)c(=O)n1-c1ccc(-c2cc3ccnc(C(=O)Nc4cccc(C(N)=O)c4F)c3n2CCOCC(F)(F)F)cc1 [Ex. 113] | 44 | 96 | 440 |
| Cc1nn(C)c(=O)n1-c1ccc(-c2cc3ccnc(C(=O)Nc4ccc(F)c(C(N)=O)c4)c3n2CCOCC(F)(F)F)cc1 [Ex. 114] | 57 | 97 | 330 |
| COCCn1c(-c2ccc(-n3c(C)nn(C)c3=O)cc2)cc2cc(C(F)(F)F)cc(C(=O)Nc3cccc(CO)c3)c21 [Ex. 115] | 54 | 95 | 430 |
| CCn1c(-c2ccc(-n3c(C)nn(C)c3=O)cc2)cc2cc(C(F)(F)F)cc(C(=O)Nc3cccc(-c4ncc[nH]4)c3)c21 [Ex. 118] | 95 |  | 230 |
| Cc1nn(C)c(=O)n1-c1ccc(-c2cc3cccc(C(=O)Nc4cccc(C(N)=O)c4F)c3n2CC2CC2)cc1 [Ex. 119] | 95 |  | 380 |
| Cc1nn(C)c(=O)n1-c1ccc(-c2cc3ccnc(C(=O)Nc4cccc(C(N)=O)c4)c3n2CC2CCC2)cc1 [Ex. 120] | 74 |  | 500 |
